Results reported in patent US8546376B2, “Pharmaceutical compounds” (Almac Discovery Limited, priority 2009, dated 2013).
Structures can show the parent of a compound that is named as a salt.

Legend:
Type in all cases: biochemical
AKT1 = molecular target: T1, AKT1 (Homo sapiens, UniProt P31749); assay: AKT Kinase Assay (IMAP fluorescent polarisation) vs AKT1; conditions: activated AKT1, FAM Crosstide substrate
T1 construct: purchased SignalChem
Outline: (§1)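 IC50 values came from non-linear regression of % inhibition relative to vehicle, measured by IMAP fluorescence polarisation (485/528 nm) after a 1 h room-temperature reaction of FAM-Crosstide and ATP. Each activated isoform was first exposed to compound for 45 min across fourteen half-log doses.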

AKT2 = molecular target: T2, AKT2 (Homo sapiens, UniProt P31751); assay: AKT Kinase Assay (IMAP fluorescent polarisation) vs AKT2; conditions: activated AKT2, FAM Crosstide substrate
T2 construct: purchased SignalChem
Outline: as §1

AKT3 = molecular target: T3, AKT3 (Homo sapiens, UniProt Q9Y243); assay: AKT Kinase Assay (IMAP fluorescent polarisation) vs AKT3; conditions: activated AKT3, FAM Crosstide substrate
T3 construct: purchased SignalChem
Outline: as §1

T3 sequence (Q9Y243 whole entry): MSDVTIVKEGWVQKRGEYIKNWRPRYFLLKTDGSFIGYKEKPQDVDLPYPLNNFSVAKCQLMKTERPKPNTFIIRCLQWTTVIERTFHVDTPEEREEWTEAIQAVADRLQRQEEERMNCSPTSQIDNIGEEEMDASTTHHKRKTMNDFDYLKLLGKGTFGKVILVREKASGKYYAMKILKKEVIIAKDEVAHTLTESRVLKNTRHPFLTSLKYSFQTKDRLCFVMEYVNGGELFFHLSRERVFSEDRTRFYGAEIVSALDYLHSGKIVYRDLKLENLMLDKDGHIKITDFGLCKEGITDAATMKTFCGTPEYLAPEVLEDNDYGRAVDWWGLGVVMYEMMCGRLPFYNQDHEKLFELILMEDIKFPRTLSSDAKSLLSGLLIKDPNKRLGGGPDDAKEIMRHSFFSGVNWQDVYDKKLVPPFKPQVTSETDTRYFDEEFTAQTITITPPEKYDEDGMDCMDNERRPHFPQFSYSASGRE
T2 sequence (P31751 whole entry): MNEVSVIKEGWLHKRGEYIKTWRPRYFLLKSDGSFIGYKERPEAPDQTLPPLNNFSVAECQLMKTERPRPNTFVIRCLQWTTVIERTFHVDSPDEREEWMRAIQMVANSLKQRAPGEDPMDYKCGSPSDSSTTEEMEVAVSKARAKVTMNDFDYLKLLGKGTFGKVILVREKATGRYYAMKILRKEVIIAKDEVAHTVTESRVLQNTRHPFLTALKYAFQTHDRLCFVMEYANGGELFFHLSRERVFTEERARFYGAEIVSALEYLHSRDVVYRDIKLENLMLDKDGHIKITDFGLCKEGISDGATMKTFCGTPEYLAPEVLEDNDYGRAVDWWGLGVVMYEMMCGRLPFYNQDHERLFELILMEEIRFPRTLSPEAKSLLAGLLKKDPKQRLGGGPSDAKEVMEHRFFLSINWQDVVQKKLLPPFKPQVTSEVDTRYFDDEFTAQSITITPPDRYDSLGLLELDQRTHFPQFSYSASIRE
T1 sequence (P31749 whole entry): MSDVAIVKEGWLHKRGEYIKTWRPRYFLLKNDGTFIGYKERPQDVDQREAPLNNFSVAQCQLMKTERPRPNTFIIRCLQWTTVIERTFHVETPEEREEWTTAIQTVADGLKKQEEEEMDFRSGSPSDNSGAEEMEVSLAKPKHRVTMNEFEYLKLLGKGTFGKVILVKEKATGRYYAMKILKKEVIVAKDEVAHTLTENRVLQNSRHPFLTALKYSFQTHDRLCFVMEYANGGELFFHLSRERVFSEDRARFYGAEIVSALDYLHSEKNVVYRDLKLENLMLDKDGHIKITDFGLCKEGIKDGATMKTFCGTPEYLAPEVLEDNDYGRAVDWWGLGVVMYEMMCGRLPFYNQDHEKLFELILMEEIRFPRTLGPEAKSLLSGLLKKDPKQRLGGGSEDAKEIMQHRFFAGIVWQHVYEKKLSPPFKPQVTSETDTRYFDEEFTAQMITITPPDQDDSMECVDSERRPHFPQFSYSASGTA

| SMILES | IC50 (AKT1) [nM] | IC50 (AKT2) [nM] | IC50 (AKT3) [nM] |
| --- | --- | --- | --- |
| CC(C)(C#N)c1ccc(-c2c(-c3ccccc3)oc3c(ccn4c(=O)[nH]nc34)c2=O)cc1 [Example 70, 2-[4-(3,6-Dioxo-8-phenyl-2,6-dihydro-3H-9-oxa-1,2,3a-triaza-cyclopenta[a]naphthalen-7-yl)-phenyl]-2-methyl-propionitrile] | ≤ 1000 | > 10000 | > 10000 |
| Cn1ncc2ccc3c(=O)c(-c4ccc(C5(N)CCC5)nc4)c(-c4ccccc4)oc3c21 [Example 71, 7-[6-(1-Amino-cyclobutyl)-pyridin-3-yl]-1-methyl-8-phenyl-1H-9-oxa-1,2-diaza-cyclopenta[a]naphthalen-6-one hydrochloride] | ≤ 1000 | > 10000 | > 10000 |
| NC1(c2ccc(-c3c(-c4ccccc4)oc4c(N5CCOCC5)cccc4c3=O)cc2)CCC1 [Example 72, 3-[4-(1-Amino-cyclobutyl)-phenyl]-8-morpholin-4-yl-2-phenyl-chromen-4-one hydrochloride] | ≤ 1000 | 1000 to 10000 | > 10000 |
| Cc1n[nH]cc1-c1cccc2c(=O)c(-c3ccc(C4(N)CCC4)cc3)c(-c3ccccc3)oc12 [Example 73, 3-[4-(1-Amino-cyclobutyl)-phenyl]-8-(3-methyl-1H-pyrazol-4-yl)-2-phenyl-chromen-4-one hydrochloride] | ≤ 1000 | ≤ 1000 | 1000 to 10000 |
| NC1(c2ccc(-c3c(-c4ccccc4)oc4c(-n5ccnc5)cccc4c3=O)cc2)CCC1 [Example 74, 3-[4-(1-Amino-cyclobutyl)-phenyl]-8-imidazol-1-yl-2-phenyl-chromen-4-one hydrochloride] | ≤ 1000 | ≤ 1000 | 1000 to 10000 |
| Cc1c(-c2cccc3c(=O)c(-c4ccc(C5(N)CCC5)cc4)c(-c4ccccc4)oc23)cnn1C [Example 75, 3-[4-(1-Amino-cyclobutyl)-phenyl]-8-(1,5-dimethyl-1H-pyrazol-4-yl)-2-phenyl-chromen-4-one hydrochloride] | ≤ 1000 | ≤ 1000 | 1000 to 10000 |
| NC1(c2ccc(-c3c(-c4ccccc4)oc4c(-c5c[nH]nc5C(F)(F)F)cccc4c3=O)cc2)CCC1 [Example 76, 3-[4-(1-Amino-cyclobutyl)-phenyl]-2-phenyl-8-(3-trifluoromethyl-1H-pyrazol-4-yl)-chromen-4-one] | ≤ 1000 | 1000 to 10000 | 1000 to 10000 |
| NC1(c2ccc(-c3c(-c4ccccc4)oc4c(N5CCNC(=O)C5)cccc4c3=O)cc2)CCC1 [Example 77, 4-{3-[4-(1-Amino-cyclobutyl)-phenyl]-4-oxo-2-phenyl-4H-chromen-8-yl}-piperazin-2-one] | ≤ 1000 | 1000 to 10000 | 1000 to 10000 |
| Cc1noc(C)c1-c1cccc2c(=O)c(-c3ccc(C4(N)CCC4)cc3)c(-c3ccccc3)oc12 [Example 78, 3-[4-(1-Amino-cyclobutyl)-phenyl]-8-(3,5-dimethyl-isoxazol-4-yl)-2-phenyl-chromen-4-one] | 1000 to 10000 | 1000 to 10000 | 1000 to 10000 |
| COc1ccc2c(=O)c(-c3ccc(C4(N)CCC4)cc3)c(-c3ccccc3)oc2c1-c1cn[nH]c1 [Example 79, 3-[4-(1-Amino-cyclobutyl)-phenyl]-7-methoxy-2-phenyl-8-(1H-pyrazol-4-yl)-chromen-4-one] | ≤ 1000 | ≤ 1000 | ≤ 1000 |
| NC1(c2ccc(-c3c(-c4ccccc4)oc4c(-c5cn[nH]c5)nccc4c3=O)cc2)CCC1 [Example 80, 3-[4-(1-Amino-cyclobutyl)-phenyl]-2-phenyl-8-(1H-pyrazol-4-yl)-pyrano[2,3-c]pyridin-4-one hydrochloride] | ≤ 1000 | ≤ 1000 | ≤ 1000 |
| CCn1ncc2ccc3c(=O)c(-c4ccc(C5(N)CCC5)cc4)c(-c4ccccc4)oc3c21 [Example 81, 7-[4-(1-Amino-cyclobutyl)-phenyl]-1-ethyl-8-phenyl-1H-9-oxa-1,2-diaza-cyclopenta[a]naphthalen-6-one hydrochloride] | ≤ 1000 | ≤ 1000 | 1000 to 10000 |
| CCn1cc2ccc3c(=O)c(-c4ccc(C5(N)CCC5)cc4)c(-c4ccccc4)oc3c2n1 [Example 82, 7-[4-(1-Amino-cyclobutyl)-phenyl]-2-ethyl-8-phenyl-2H-9-oxa-1,2-diaza-cyclopenta[a]naphthalen-6-one hydrochloride] | ≤ 1000 | ≤ 1000 | > 10000 |
| CC(C)n1ncc2ccc3c(=O)c(-c4ccc(C5(N)CCC5)cc4)c(-c4ccccc4)oc3c21 [Example 83, 7-[4-(1-Amino-cyclobutyl)-phenyl]-1-isopropyl-8-phenyl-1H-9-oxa-1,2-diaza-cyclopenta[a]naphthalen-6-one hydrochloride] | ≤ 1000 | ≤ 1000 | 1000 to 10000 |
| CC(C)n1cc2ccc3c(=O)c(-c4ccc(C5(N)CCC5)cc4)c(-c4ccccc4)oc3c2n1 [Example 84, 7-[4-(1-Amino-cyclobutyl)-phenyl]-2-isopropyl-8-phenyl-2H-9-oxa-1,2-diaza-cyclopenta[a]naphthalen-6-one hydrochloride] | ≤ 1000 | ≤ 1000 | 1000 to 10000 |
| NC1(c2ccc(-c3c(-c4ccccc4)oc4c(ccc5cnn(CCO)c54)c3=O)cc2)CCC1 [Example 85, 7-[4-(1-Amino-cyclobutyl)-phenyl]-1-(2-hydroxy-ethyl)-8-phenyl-1H-9-oxa-1,2-diaza-cyclopenta[a]naphthalen-6-one hydrochloride] | ≤ 1000 | ≤ 1000 | 1000 to 10000 |
| NC1(c2ccc(-c3c(-c4ccccc4)oc4c(ccc5cn(CCO)nc54)c3=O)cc2)CCC1 [Example 86, 7-[4-(1-Amino-cyclobutyl)-phenyl]-2-(2-hydroxy-ethyl)-8-phenyl-2H-9-oxa-1,2-diaza-cyclopenta[a]naphthalen-6-one hydrochloride] | ≤ 1000 | ≤ 1000 | 1000 to 10000 |
| NC1(c2ccc(-c3c(-c4ccccc4)oc4c(ccc5[nH]c(=O)[nH]c54)c3=O)cc2)CCC1 [Example 87, 7-[4-(1-Amino-cyclobutyl)-phenyl]-8-phenyl-1,3-dihydro-chromeno[7,8-d]imidazole-2,6-dione] | ≤ 1000 | ≤ 1000 | > 10000 |
| NC1(c2ccc(-c3c(-c4ccccc4)oc4c(ccc5nn[nH]c54)c3=O)cc2)CCC1 [Example 88, 7-[4-(1-Amino-cyclobutyl)-phenyl]-8-phenyl-1H-9-oxa-1,2,3-triaza-cyclopenta[a]naphthalen-6-one] | ≤ 1000 | ≤ 1000 | > 10000 |
| Cc1nc2ccc3c(=O)c(-c4ccc(C5(N)CCC5)cc4)c(-c4ccccc4)oc3c2[nH]1 [Example 89, 7-[4-(1-Amino-cyclobutyl)-phenyl]-2-methyl-8-phenyl-1H-chromeno[7,8-d]imidazol-6-one] | ≤ 1000 | ≤ 1000 | 1000 to 10000 |
| Cc1nc2ccc3c(=O)c(-c4ccc(C5(N)CCC5)cc4)c(-c4ccccc4)oc3c2n1C [Example 90, 7-[4-(1-Amino-cyclobutyl)-phenyl]-1,2-dimethyl-8-phenyl-1H-chromeno[7,8-d]imidazol-6-one] | ≤ 1000 | ≤ 1000 | ≤ 1000 |
| NC1(c2ccc(-c3c(-c4ccccc4)oc4c(ccc5[nH]c(=O)oc54)c3=O)cc2)CCC1 [Example 91, 7-[4-(1-Amino-cyclobutyl)-phenyl]-8-phenyl-3H-chromeno[7,8-d]oxazole-2,6-dione] | ≤ 1000 | ≤ 1000 | > 10000 |
| NC1(c2ccc(-c3c(-c4ccccc4)oc4c5c(ccc4c3=O)NC(=O)CO5)cc2)CCC1 [Example 92, 7-[4-(1-Amino-cyclobutyl)-phenyl]-6-phenyl-1H-4,5-dioxa-1-aza-phenanthrene-2,8-dione] | ≤ 1000 | ≤ 1000 | 1000 to 10000 |
| Nc1ccc2c(=O)c(-c3ccc(C4(N)CCC4)cc3)c(-c3ccccc3)oc2c1O [Example 93, 7-Amino-3-[4-(1-amino-cyclobutyl)-phenyl]-8-hydroxy-2-phenyl-chromen-4-one] | ≤ 1000 | 1000 to 10000 | > 10000 |
| NC1(c2ccc(-c3c(-c4ccccc4)oc4c(ccc5nc(C(F)(F)F)[nH]c54)c3=O)cc2)CCC1 [Example 94, 7-[4-(1-Amino-cyclobutyl)-phenyl]-8-Phenyl-2-trifluoromethyl-1H-chromeno[7,8-d]imidazol-6-one] | ≤ 1000 | 1000 to 10000 | > 10000 |
| NC1(c2ccc(-c3c(-c4ccccc4)oc4c(ccc5nc(C(F)F)[nH]c54)c3=O)cc2)CCC1 [Example 95, 7-[4-(1-Amino-cyclobutyl)-phenyl]-2-difluoromethyl-8-phenyl-1H-chromeno[7,8-d]imidazol-6-one] | ≤ 1000 | ≤ 1000 | 1000 to 10000 |
| Cn1cnc2ccc3c(=O)c(-c4ccc(C5(N)CCC5)cc4)c(-c4ccccc4)oc3c21 [Example 96, 7-[4-(1-Amino-cyclobutyl)-phenyl]-1-methyl-8-phenyl-1H-chromeno[7,8-d]imidazol-6-one] | ≤ 1000 | ≤ 1000 | ≤ 1000 |
| NC1(c2ccc(-c3c(-c4ccccc4)oc4c(ccc5c(I)n[nH]c54)c3=O)cc2)CCC1 [Example 97, 7-[4-(1-Amino-cyclobutyl)-phenyl]-3-iodo-8-phenyl-1H-9-oxa-1,2-diaza-cyclopenta[a]naphthalen-6-one hydrochloride] | ≤ 1000 | 1000 to 10000 | > 10000 |
| CCc1nn(C)c2c1ccc1c(=O)c(-c3ccc(C4(N)CCC4)cc3)c(-c3ccccc3)oc12 [Example 98, 7-[4-(1-Amino-cyclobutyl)-phenyl]-3-ethyl-1-methyl-8-phenyl-1H-9-oxa-1,2-diaza-cyclopenta[a]naphthalen-6-one hydrochloride] | ≤ 1000 | ≤ 1000 | 1000 to 10000 |
